Test results published in patent publication US11702469B2, “Recombinant EGFL7, EGFL7 antibodies, and uses thereof” (Ohio State Innovation Foundation, priority 2017, dated 2023).

Assays:
HES1 [1] = test: DLL4-Fc coated plate NOTCH activation (HES1 qRT-PCR), THP-1; assay type: cell-based, human
Protocol: (§1) FIG. 24A-24G. EGFL7 prevents activation of NOTCH signaling in AML cells. (FIG. 24A) Overview of experiments using DLL4-FC and IgG-FC control coated plates to induce NOTCH activation. (FIG. 24B) THP-1 cells were pre-treated with 10 μM γ-secretase inhibitor (AVA), 100 μg/ml anti-EGFL7 antibody or 0.25 μM rEGFL7 for 30 min, then transferred to IgG-Fc or DLL4-Fc coated plates. After 4 h of incubation total RNA from THP-1 cells was extracted for qRT-PCR analysis of HES1 with β-ACTIN as internal control. ^###P<0.001 DLL4-FC vs IgG-FC; ***P<0.001 DLL4+AVA, DLL4+rEGFL7, and DLL4+anti-EGFL7 vs DLL4-FC. (FIG. 24C) Primary AML blasts were pretreated with 10 μM γ-secretase inhibitor (AVA), 100 μg/ml anti-EGFL7 antibody or 0.25 μM rEGFL7 for 30 min, then transferred to IgG-Fc or DLL4-Fc coated plates. After 4 h of incubation, total RNA was extracted for RT-PCR analysis of HES1 mRNA with β-ACTIN as internal control. ^###P<0.001 DLL4-Fc vs IgG-Fc; *P<0.05, ***P<0.001 vs DLL4 Fc. THP-1 cells were treated with the indicated concentration of anti-EGFL7 (@E7) then assessed for apoptosis using (FIG. 24D) AnnexinV+ staining and FACS; *P<0.05 (FIG. 24E) Immuno-blotting for PARP1 and Casp3 cleavage. (FIG. 24F) Cell differentiation was assessed by CD11B and CD14 staining 96-hours post anti-EGFL7 treatments; *P<0.05. (FIG. 24G) To determine whether activation of NOTCH by DLL4-Fc could be accentuated by anti-EGFL7 treatment, THP-1 cells were first treated with anti-EGFL7 (100 μg/ml) and then cultured on DLL4-FC or IgG-Fc coated plates and then assessed for apoptosis using AnnexinV+ staining and FACS. *P<0.05 DLL4-Fc and anti-EGFL7; vs DLL4-FC+anti-EGFL7.
Total RNA was extracted using Trizol reagent (Invitrogen, Carlsbad, Calif., USA). cDNA was synthesized using SuperScript III reagents (Invitrogen) according to the manufacturer's instruction. Quantitative Real-Time RT-PCR was performed using commercially available TaqMan Gene Expression Assay primers and the 7900HT Fast Real-Time PCR System (Applied Biosystems, Foster City, Calif., USA). […]

HES1 [2] = test: OP9-DLL1 co-culture NOTCH activation (HES1 RT-PCR), THP-1; assay type: cell-based, human; settings: THP-1 co-cultured with OP9-DLL1
From the text: FIG. 27. EGFL7 prevents NOTCH ligand inactivation of Notch signaling in AML cells. (A) Overview of experiments involving co-culture of THP-1 cells with mouse stromal cells overexpressing DLL1. (B) Total RNA was extracted for RT-PCR analysis of HES1 with β-ACTIN as internal control. ^###P<0.001 OP9-DLL1 vs OP9; *P<0.05, **P<0.01 vs untreated control.
Total RNA was extracted using Trizol reagent (Invitrogen, Carlsbad, Calif., USA). cDNA was synthesized using SuperScript III reagents (Invitrogen) according to the manufacturer's instruction. Quantitative Real-Time RT-PCR was performed using commercially available TaqMan Gene Expression Assay primers and the 7900HT Fast Real-Time PCR System (Applied Biosystems, Foster City, Calif., USA). The expression levels of target genes were normalized to β-ACTIN. Relative expression was calculated by using the comparative 2^−ΔΔct method.
It was next determined whether EGFL7 is inhibiting NOTCH signaling in AML cells by competing with canonical NOTCH ligand binding. To perform these experiments, THP-1 cells were cultured on DLL4-Fc and IgG-Fc (control) coated plates to activate NOTCH signaling. The effect of rEGFL7 and anti-EGFL7 on this DLL4-Fc NOTCH activation was also tested (FIG. 24A). […] For these experiments, co-culture was performed of THP-1 cells with stromal cells (OP9) overexpressing membrane bound DLL1 (OP9-DLL1)^25 (FIG. 27A).

NOTCH signaling = test: Gamma-secretase inhibitor on Parsatuzumab induced NOTCH activation, primary blasts; assay type: cell-based, human
Protocol: as §1, with “(FIG. 24C) Primary AML blasts were pretreated with 10 μM γ-secretase inhibitor (AVA), 100 μg/ml anti-EGFL7 antibody or 0.25 μM rEGFL7 for 30 min, then transferred to IgG-Fc or DLL4-Fc coated plates. After 4 h of incubation, total RNA was extracted for RT-PCR analysis of HES1 mRNA with β-ACTIN as internal control. ^###P<0.001 DLL4-Fc vs IgG-Fc; *P<0.05, ***P<0.001 vs DLL4 Fc.” left out, “DLL4-FC+anti-EGFL7. […]” for “DLL4-FC+anti-EGFL7.”

FLT3-ITD AML = settings: phase I/II study in AML; cited from earlier work
acute myeloid leukemia = settings: PSC-833 arm with cytarabine, daunorubicin and etoposide; cited from earlier work

NC(=O)[C@@H](CCC(F)(F)F)N(Cc1ccc(-c2ncon2)cc1F)S(=O)(=O)c1ccc(Cl)cc1 [AVA, Avagacestat]
DLL4-Fc-mediated NOTCH activation (HES1) (HES1 [1]; pre-treated 30 min: 10 μM AVA, 100 μg/ml anti-EGFL7 or 0.25 μM rEGFL7, then 4 h, vs DLL4-FC): significantly reduced | DLL1-mediated NOTCH activation (HES1) (HES1 [2]): significantly reduced | Parsatuzumab induced NOTCH activation (NOTCH signaling): blocked

CCc1nc(C(N)=O)c(Nc2ccc(N3CCC(N4CCN(C)CC4)CC3)c(OC)c2)nc1NC1CCOCC1 [Gilteritinib]
tolerability and safety (FLT3-ITD AML): tolerable, safe

C/C=C/C[C@@H](C)C(=O)[C@H]1C(=O)N[C@@H](C(C)C)C(=O)N(C)CC(=O)N(C)[C@@H](CC(C)C)C(=O)N[C@@H](C(C)C)C(=O)N(C)[C@@H](CC(C)C)C(=O)N[C@@H](C)C(=O)N[C@H](C)C(=O)N(C)[C@@H](CC(C)C)C(=O)N(C)[C@@H](CC(C)C)C(=O)N(C)[C@@H](C(C)C)C(=O)N1C [PSC-833, valspodar]
early deaths (acute myeloid leukemia): excessive early deaths

DLL4-Fc: Recombinant human DLL4 (Fc chimera, ab108557), canonical NOTCH ligand
NOTCH activation assessed by HES1 expression (HES1 [1]; DLL4-Fc vs IgG-Fc coated plates, 4 h): increases in NOTCH activation
